These results are taken from PubChem BioAssay AID179 (DTP/NCI, 2004).

Active and inactive are the calls of the source.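 Rule for the calls: active = compounds giving half or more protection of infected cells from virus-caused growth loss, again on retest; inactive = the rest.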

Broadly, the EC50 is the midpoint of the concentration-response curve. For orientation: IC50 means the point on the concentration scale where inhibition reaches its midpoint.

The test system of this assay is CEM cells HIV-1 protection, formazan growth assay. The assay can be described thus: NCI AIDS Antiviral Assay. The note with it: for IC50: measured here: growth of uninfected CEM cells. The procedure:
The ability of compounds to protect human CEM cells from HIV-1 infection is measured as a screen for new compounds capable of inhibiting the HIV virus. Five concentrations of drug were tested on uninfected and infected cells and cell growth was measured using a soluble formazan assay. […] Compounds that provided at least 50% protection were retested. Compounds that provided at least 50% protection on retest were listed as moderately active. Compounds that reproducibly provided 100% protection were listed as confirmed active. […] Note that the inability to provide protection could be due to toxicity.

Consider `Cc1[nH]c2ccccc2c1C1Cc2ccccc2N1C(=O)C#Cc1ccc([N+](=O)[O-])cc1` (stereo not given), for which the outcome was inactive.

As for `CC1(C)Oc2ccc(C3=NO[C@@H]4C(=O)N(c5ccc(Cc6ccc(N7C(=O)[C@H]8C(c9ccc%10c(c9)OC(C)(C)O%10)=NO[C@H]8C7=O)cc6)cc5)C(=O)[C@H]34)cc2O1`, the EC50 is greater than 91.2 µM and the IC50 was greater than 91.2 µM.

On to `CC(=O)Oc1cc2c(n(C)c1=O)CCC2`, for which the EC50 is greater than 200 µM and the IC50 was 155 µM.

For the compound `COCS(=O)(=O)c1ccccc1`, the EC50 was greater than 708 µM and the IC50 is greater than 708 µM.

Regarding `C=C1C(=O)O[C@@H]2C[C@@H](C)[C@@H]3C=CC(=O)[C@@]3(C)[C@@H](O)[C@H]12`, the EC50 was greater than 9.55 µM and the IC50 was 0.513 µM.

As to `O=C1OCc2c1cc1ccc(O)c(OC3OC(CO)C(O)C(O)C3O)c1c2-c1ccc2c(c1)OCO2` (stereo not given), the EC50 was greater than 501 µM and the IC50 was greater than 501 µM.

Take `COC(=O)CSc1nc2[nH]c(SC)c(C(N)=O)c2c(=O)n1-c1ccccc1`: the EC50 is greater than 200 µM and the IC50 is greater than 200 µM.

On to `COc1ccc2c(O)c(Cl)c(=O)oc2c1`, for which the EC50 is greater than 200 µM and the IC50 is greater than 200 µM.

On to `Cn1c2c(c(=O)n(C)c1=O)CS(=O)c1ccccc1N2` (stereo not given), for which the EC50 is greater than 309 µM and the IC50 came out at 234 µM.

With `CCS[C@@H]([C@@H](COC(C)=O)OC(C)=O)[S@](=O)CC`, the EC50 is greater than 200 µM and the IC50 was 26.3 µM.

Take `C/C(=C(/C)c1cc[n+](C)cc1)c1cc[n+](C)cc1`: the EC50 is greater than 11.2 µM and the IC50 was greater than 11.2 µM.

For the compound `O=S(=O)(c1ccccn1)c1nc2ccccc2s1`, the result was inactive.

On to `Cc1ccc(NC(=O)CCc2cc(C(C)(C)C)nc(=S)[nH]2)cc1C`, for which the EC50 is greater than 724 µM and the IC50 was 398 µM.

Take `CCN(CC)C(=O)c1c2nc3c(C(=O)N(CC)CC)ccc(C)c3oc-2c(C)c(=O)c1N`: the EC50 was greater than 200 µM and the IC50 amounted to 83.2 µM.

As to `COC(=O)[C@]1(C)CC[C@]2(C)CC[C@]3(C)C4CC[C@@]56CO[C@@](O)(CCC5[C@]4(C)CCC3(C)[C@@H]2C1)[C@@H]6C` (stereo not given in full), the EC50 is greater than 28.2 µM and the IC50 was 26.9 µM.

On to `COc1ccc(NC2CC(C)N(C(=O)c3ccccc3)O2)cc1` (stereo not given), for which the EC50 is greater than 200 µM and the IC50 came to 95.5 µM.

As for `CC(C)c1cccc(C(C)C)c1O`, the EC50 was greater than 200 µM and the IC50 is greater than 200 µM.

In the case of `COc1ccc(C(c2ccc3c(c2)OCO3)N2C(=O)CCC2C(=O)O)cc1` (stereo not given), the EC50 was greater than 200 µM and the IC50 is greater than 200 µM.

`CC(=O)OC1CC2C(C)(C)C(=O)C=C[C@]2(C)C2CCC3(C)C(c4ccoc4)C(=O)C4OC43[C@]12C` (stereo not given in full): the outcome was inactive.

Take `NC(=O)C(=O)C(c1ccccc1)S(=O)(=O)Cc1ccccc1` (stereo not given): the EC50 was greater than 200 µM and the IC50 was greater than 200 µM.

For `O=c1[nH]c(=O)n(CCOc2ccc(Cl)cc2)cc1Nc1ccccc1`, the EC50 is greater than 200 µM and the IC50 came to 135 µM.

Consider `CCCCCCCCCCCCCCCC(=O)OCC1OC(OC)C(NC(=O)N(CCCl)N=O)C(O)C1O` (stereo not given), for which the EC50 is greater than 33.1 µM and the IC50 stood at 6.92 µM.

On to `COc1cc(Oc2nc3ccccc3nc2C(=O)O)cc(OC)c1OC`, for which the EC50 was greater than 200 µM and the IC50 is greater than 200 µM.

Consider `COc1cc(/C=C/c2ccc(OC)c(OC)c2)cc(OC)c1`, for which the result was inactive.

In the case of `Nc1ccn(C2OC(CO)C(O)C2O)c(=O)n1` (stereo not given), the EC50 was greater than 2 µM and the IC50 is 0.00275 µM.

For `O=C(CC/C=C(/CS(=O)(=O)c1ccccc1)S(=O)(=O)c1ccccc1)c1ccccc1`, the EC50 is greater than 100 µM and the IC50 was greater than 100 µM.

As for `Cc1ccc(N=C2SC(=S)N(CCC[N+](C)(C)C)C2=Nc2ccc(C)cc2)cc1`, the EC50 is greater than 200 µM and the IC50 amounted to 14.1 µM.

With `O=C(O)CN1C(=O)c2ccc(NC(=O)C(=O)O)cc2S1(=O)=O`, the EC50 is greater than 200 µM and the IC50 was greater than 200 µM.

Take `O=C1c2cccc3c([N+](=O)[O-])ccc(c23)C(=O)N1CC1CCCO1` (stereo not given): the EC50 is greater than 2 µM and the IC50 was determined as 0.195 µM.

Take `Cc1cc(O)c(C(C)(C)C)cc1Sc1cc(C(C)(C)C)c(O)cc1C`: the EC50 is greater than 200 µM and the IC50 is 6.46 µM.

As to `NC(=O)NN=C1C[C@H]2CCCC[C@H]2C1`, the result was inactive.

For `COC(=O)C1=CC(=O)N2CCN=C2S1`, the EC50 is greater than 200 µM and the IC50 is greater than 200 µM.

Take `[Cl][Sn]([Cl])([c]1ccccc1)[c]1ccccc1`: the outcome was inactive.

As to `Cc1c2ccccc2nc(CS(C)=O)[n+]1[O-]` (stereo not given), the EC50 is greater than 200 µM and the IC50 was greater than 200 µM.

Take `CC=C(c1cc(Br)c(OC)c(C(=O)OC)c1)c1cc(Br)c(OC)c(C(=O)OC)c1`: the EC50 was greater than 200 µM and the IC50 came to 13.5 µM.

Take `CC(C)(C)C1CCP(=O)(c2ccccc2)CC1` (stereo not given): the EC50 was 0.0631 µM and the IC50 is greater than 200 µM.

Turning to `O=C(CSSCC(=O)OCCS(=O)(=O)Nc1ccc(Br)cc1)OCCS(=O)(=O)Nc1ccc(Br)cc1`, the result was inactive.

Consider `COc1ccc(-c2c(-c3ccccc3)c(C)nc3nc(SC)nc(SC)c23)cc1OC`, for which the EC50 is greater than 200 µM and the IC50 came to 11.5 µM.

Take `O=C(CCC[n+]1ccccc1)Sc1ccccc1C(=O)NCc1ccc2c(c1)OCO2`: the EC50 was greater than 16.6 µM and the IC50 amounted to 3.39 µM.

For `N#CN/C(N)=N/CO`, the EC50 is greater than 776 µM and the IC50 worked out at 46.8 µM.

On to `O=c1ccc2ccccc2c2ccccc12`, for which the EC50 was greater than 117 µM and the IC50 amounted to 1.66 µM.

Regarding `O=S(=O)(SSS(=O)(=O)c1ccc(Cl)cc1)c1ccc(Cl)cc1`, the EC50 is greater than 63.1 µM and the IC50 was greater than 63.1 µM.

Regarding `CC(=O)NCCSSCCCCSSCCNC(C)=O`, the EC50 was greater than 200 µM and the IC50 turned out to be 95.5 µM.

Consider `COC(=O)CCC=C(c1cc(Cl)c(OC)c(C(=O)OC)c1)c1cc(Cl)c(OC)c(C(=O)OC)c1`, for which the EC50 is greater than 200 µM and the IC50 was found to be 44.7 µM.

In the case of `NC(=O)c1c2n(c3ncnc(N)c13)C1OC(CO)C(O)C1S2` (stereo not given), the EC50 is greater than 389 µM and the IC50 is greater than 389 µM.

`COC1/C=C/OC2(C)Oc3c(C)c(O)c4c(O)c(c(C=NN5CCCCCCCCCCCCCCC5)c(O)c4c3C2=O)NC(=O)/C(C)=C/C=C/C(C)C(O)C(C)C(O)C(C)C(OC(C)=O)C1C` (stereo not given): the EC50 was greater than 200 µM and the IC50 worked out at 3.98 µM.

With `COC(=O)c1ccc(S)c(S(=O)(=O)Nc2n[nH]c(N)n2)c1`, the EC50 is greater than 200 µM and the IC50 is greater than 200 µM.

As for `C=C(C(=O)O)C1CC[C@@]2(C)CCC[C@@](C)(O)C2C1` (stereo not given in full), the EC50 was greater than 200 µM and the IC50 is greater than 200 µM.

For `COc1cc2c(c(OC)c1OC)-c1cccc(=O)cc1C(NC(C)=O)CC2` (stereo not given), the EC50 was greater than 2 µM and the IC50 worked out at 0.0389 µM.

As for `N#Cc1cccc(/C=C(/C(=O)c2ccccc2)c2ccccc2)c1`, the EC50 is greater than 17 µM and the IC50 amounted to 9.55 µM.

Consider `CC(=O)CC12NC(=O)N(C)N=C1N(C)C(=O)N(C)C2=O` (stereo not given), for which the EC50 is greater than 200 µM and the IC50 was 10.7 µM.

Regarding `O=C(Nc1cc2c(=O)[nH]c3ccccc3c2oc1=O)c1cnccn1`, the EC50 is greater than 100 µM and the IC50 was greater than 100 µM.

`C#CCN1C(=O)NC(c2ccccc2)(c2ccccc2)C1=O.[C-]#[O+].[C-]#[O+].[C-]#[O+].[C-]#[O+].[C-]#[O+].[C-]#[O+].[Co].[Co]`: the EC50 was greater than 200 µM and the IC50 stood at 8.91 µM.

Regarding `COc1ccc(CCNC(=O)Cc2ccccc2CCO)cc1OC`, the EC50 was greater than 200 µM and the IC50 is greater than 200 µM.

Regarding `CN(C)Cc1cc(C23CC4CC(CC(C4)C2)C3)cc(-c2ccccc2)c1O`, the outcome was inactive.

For `CC1(C)OC(=O)C(=Cc2cccc(Br)c2)C(=O)O1`, the EC50 was greater than 794 µM and the IC50 stood at 1.86 µM.

Regarding `O=C(NN1C(=O)C(Cl)C1c1cccc([N+](=O)[O-])c1)c1ccccc1O` (stereo not given), the EC50 was greater than 27.5 µM and the IC50 was greater than 27.5 µM.

Consider `CCCC/S(C)=N/S(=O)(=O)c1ccc(C)cc1` (stereo not given), for which the EC50 is greater than 200 µM and the IC50 is greater than 200 µM.

For `COc1cccc(C=O)c1[O-].COc1cccc(C=O)c1[O-].[Co+2]`, the EC50 is greater than 186 µM and the IC50 was 28.2 µM.

For `CCCCCCCCCCCCOP(=O)(O)OP(=O)(O)OCC1OC(n2cc(C)c(=O)[nH]c2=O)CC1O` (stereo not given), the EC50 is greater than 200 µM and the IC50 is 102 µM.

Turning to `Oc1c([Si](c2ccccc2)(c2ccccc2)c2ccccc2)cc2ccccc2c1-c1c(O)c([Si](c2ccccc2)(c2ccccc2)c2ccccc2)cc2ccccc12`, the EC50 was greater than 50.1 µM and the IC50 is greater than 50.1 µM.

Regarding `CCOC(=O)c1c(SCCCN2CCCCC2)n(-c2ccccc2)c(=S)n(-c2ccccc2)c1=O`, the EC50 is greater than 37.2 µM and the IC50 was determined as 6.31 µM.

Take `CCOC(=O)Nc1ccc2nc(Sc3ccc(C)cc3)sc2c1`: the EC50 is greater than 20.9 µM and the IC50 came out at 1.23 µM.

For the compound `CC1CCC23COC(=O)C2C(O)CCC3C1(C)CC(O)c1ccoc1` (stereo not given), the EC50 was greater than 145 µM and the IC50 was greater than 145 µM.

In the case of `O=C(O)c1cnc2[nH]ccn2c1=O`, the EC50 was greater than 200 µM and the IC50 is greater than 200 µM.

Regarding `CC(c1ccccc1)[P+](c1ccccc1)(c1ccccc1)c1ccccc1` (stereo not given), the EC50 is greater than 200 µM and the IC50 came to 1.32 µM.

Take `O=C(O)c1cc(O)c2c(c1)C([C@@H]1c3cccc(O)c3C(=O)c3c(O)cc(C(=O)O)cc31)c1cccc(O)c1C2=O` (stereo not given in full): the EC50 is greater than 200 µM and the IC50 is 31.6 µM.

Regarding `COc1ccc(C(=O)c2ccc(OC)c(S(=O)(=O)N(C)C=O)c2)cc1S(=O)(=O)N(C)C=O`, the EC50 was greater than 38.9 µM and the IC50 was greater than 38.9 µM.

`COc1ccc2c(c1)CCN1CCc3cc(OC)c(OC)cc3CC21` (stereo not given): the EC50 is greater than 200 µM and the IC50 is 61.7 µM.
